Data on 16 compounds can be found in patent US20230076310A1, “COMPOSITION USING NOVEL LACTOBACILLUS PLANTARUM KC3 STRAIN FOR PREVENTION OR TREATMENT OF IMMUNE IMPAIRMENT, RESPIRATORY INFLAMMATORY DISEASE, ALLERGY, AND ASTHMA AND USE THEREOF” (KT&G CORPORATION, priority 2020, published 2023).

Bridge positions count the residues as written; N and C are the ends. Square brackets hold non-standard residues; d marks the D form. Peptide text beside a SMILES is read from it. * marks the point of attachment. Ileψ(thiazoline)Cys = CC[C@H](C)[C@H](N)C1=N[C@H](C(=O)*)CS1; dOrn = NCCC[C@@H](N)C(=O)O

The first assay deals with Lactobacillus plantarum KC3. The assay can be described thus: Antibiotics resistance experiment (antibiotic strips on LSM solid medium). It counts as cell-based. To be noted: antibiotic strip on KC3 lawn, 37° C. for 24 hours. As for the experimental part:
In order to confirm antibiotics resistance level of the new lactic acid bacteria from the of the Lactobacillus plantarum KC3 the present disclosure, an experiment was performed as follows by applying the method described in the document ([1] Mathur, S. and R. Singh, Antibiotic resistance in food lactic acid bacteria—A review. Int. J. Food Microbiol 2005 105: 281-295); [2] European Food Safety Authority, Guidance on the assessment of bacterial susceptibility to antimicrobials of human and veterinary importance: EFSA Panel on Additives and Products or Substances used in Animal Feed (FEEDAP). The EFSA Journal 2012 2740:1-10. doi:10.2903/j.efsa.2012.2740).
To measure the antibiotics resistance level of the strain, an MIC test was carried out. Lactic acid bacteria that were inoculated into an MRS medium (DF0881-17-5, Difco) and cultured at 37° C. for 18 hours were spread on an LSM solid medium (90% iso-sensitest broth (CM0473, Oxoid), 10% MRS medium (DF0881-17-5, Difco), and 1.5% agar (214010, Difco)). Strips for each type of antibiotics, such as Amikacin (92018, Liofilchem srl), Gentamycin (92009, Liofilchem srl), Kanamycin (92034, Liofilchem srl), Streptomycin (92112, Liofilchem srl), Penicillin-G (92102, Liofilchem srl), Oxacillin (92015, Liofilchem srl), Ampicillin (920030, Liofilchem srl), Bacitracin (92019, Liofilchem srl), Rifampicin (92001, Liofilchem srl), Polymyxin B (92004, Liofilchem srl), Chloramphenico I (92075, Liofilchem srl), Vancomycin (92057, Liofilchem srl), and the like, were put on the medium, and the bacteria were grown at 37° C. for 24 hours.
In Table 4, R indicates resistance and represents that the size of an inhibition zone is about 0 mm; IS indicates medium resistance and represents that the size of an inhibition zone is in a range of about 1 mm to about 5 mm; and S indicates […] and represents that the size of an inhibition zone is greater than about 5 mm.
For `[H]/N=C(/N)N[C@H]1[C@H](O)[C@@H](O)[C@H](O[C@@H]2O[C@@H](C)[C@](O)(C=O)[C@H]2O[C@@H]2O[C@@H](CO)[C@H](O)[C@@H](O)[C@@H]2NC)[C@@H](N/C(N)=N\[H])[C@@H]1O` [Streptomycin], the “Antibiotic resistance (class)” value is “R (R indicates resistance and represents that the size of an inhibition zone is about 0 mm)”; the “Antibiotic resistance, size of inhibition zone” value is on record as “(0 mm)”.

For Neomycin, the “Antibiotic resistance (class)” value is “IS (IS indicates medium resistance and represents that the size of an inhibition zone is in a range of about 1 mm to about 5 mm)”; the “Antibiotic resistance, size of inhibition zone” value was “(3 mm)”.

In the case of Polymyxin B, the “Antibiotic resistance (class)” value is “R (R indicates resistance and represents that the size of an inhibition zone is about 0 mm)”; the “Antibiotic resistance, size of inhibition zone” value is listed as “(0 mm)”.

Take `CN[C@H](CC(C)C)C(=O)N[C@H]1C(=O)N[C@@H](CC(N)=O)C(=O)N[C@H]2C(=O)N[C@H]3C(=O)N[C@H](C(=O)N[C@H](C(=O)O)c4cc(O)cc(O)c4-c4cc3ccc4O)[C@H](O)c3ccc(c(Cl)c3)Oc3cc2cc(c3O[C@@H]2O[C@H](CO)[C@@H](O)[C@H](O)[C@H]2O[C@H]2C[C@](C)(N)[C@H](O)[C@H](C)O2)Oc2ccc(cc2Cl)[C@H]1O` [Vancomycin]: the “Antibiotic resistance (class)” value was “R (R indicates resistance and represents that the size of an inhibition zone is about 0 mm)”; the “Antibiotic resistance, size of inhibition zone” value is reported as “(0 mm)”.

Turning to `CO[C@@H]1[C@@H](OC(N)=O)[C@@H](O)[C@H](Oc2ccc3c(O)c(NC(=O)c4ccc(O)c(CC=C(C)C)c4)c(=O)oc3c2C)OC1(C)C` [Novabiocin], the “Antibiotic resistance (class)” value was “S (S indicates resistance and represents that the size of an inhibition zone is greater than about 5 mm)”; the “Antibiotic resistance, size of inhibition zone” value is listed as “(7 mm)”.

With `CO[C@H]1/C=C/O[C@@]2(C)Oc3c(C)c(O)c4c(O)c(c(/C=N/N5CCN(C)CC5)c(O)c4c3C2=O)NC(=O)/C(C)=C\C=C\[C@H](C)[C@H](O)[C@@H](C)[C@@H](O)[C@@H](C)[C@H](OC(C)=O)[C@@H]1C` [Rifampicin], the “Antibiotic resistance (class)” value is “S (S indicates resistance and represents that the size of an inhibition zone is greater than about 5 mm)”; the “Antibiotic resistance, size of inhibition zone” value is listed as “(7 mm)”.

Take `Cc1onc(-c2ccccc2)c1C(=O)N[C@@H]1C(=O)N2[C@@H]1SC(C)(C)[C@@H]2C(=O)O` [Oxacillin]: the “Antibiotic resistance (class)” value was “IS (IS indicates medium resistance and represents that the size of an inhibition zone is in a range of about 1 mm to about 5 mm)”; the “Antibiotic resistance, size of inhibition zone” value is “(2 mm)”.

Regarding `O=C(N[C@H](CO)[C@H](O)c1ccc([N+](=O)[O-])cc1)C(Cl)Cl` [Chloramphenicol], the “Antibiotic resistance (class)” value was “S (S indicates resistance and represents that the size of an inhibition zone is greater than about 5 mm)”; the “Antibiotic resistance, size of inhibition zone” value is recorded as “(10 mm)”.

On to `NC[C@H]1O[C@H](O[C@H]2[C@H](O)[C@@H](O[C@H]3O[C@H](CO)[C@@H](O)[C@H](N)[C@H]3O)[C@H](N)C[C@@H]2N)[C@H](O)[C@@H](O)[C@@H]1O` [Kanamycin], for which the “Antibiotic resistance (class)” value was “R (R indicates resistance and represents that the size of an inhibition zone is about 0 mm)”; the “Antibiotic resistance, size of inhibition zone” value is given as “(0 mm)”.

As for Gentamycin, the “Antibiotic resistance (class)” value is “IS (IS indicates medium resistance and represents that the size of an inhibition zone is in a range of about 1 mm to about 5 mm)”; the “Antibiotic resistance, size of inhibition zone” value is “(3 mm)”.

As to `CC1(C)S[C@@H]2[C@H](NC(=O)Cc3ccccc3)C(=O)N2[C@H]1C(=O)O` [Penicillin-G], the “Antibiotic resistance (class)” value was “IS (IS indicates medium resistance and represents that the size of an inhibition zone is in a range of about 1 mm to about 5 mm)”; the “Antibiotic resistance, size of inhibition zone” value is “(5 mm)”.

Turning to `CC1(C)S[C@@H]2[C@H](NC(=O)[C@H](N)c3ccccc3)C(=O)N2[C@H]1C(=O)O` [Ampicillin], the “Antibiotic resistance (class)” value was “S (S indicates resistance and represents that the size of an inhibition zone is greater than about 5 mm)”; the “Antibiotic resistance, size of inhibition zone” value is given as “(14 mm)”.

As to `CCC[C@@H]1C[C@@H](C(=O)N[C@@H]([C@H]2O[C@H](SC)[C@H](O)[C@@H](O)[C@H]2O)[C@@H](C)O)N(C)C1` [Lincomycin], the “Antibiotic resistance (class)” value was “S (S indicates resistance and represents that the size of an inhibition zone is greater than about 5 mm)”; the “Antibiotic resistance, size of inhibition zone” value is “(10 mm)”.

In the case of `NCC[C@H](O)C(=O)N[C@@H]1C[C@H](N)[C@@H](O[C@H]2O[C@H](CN)[C@@H](O)[C@H](O)[C@H]2O)[C@H](O)[C@H]1O[C@H]1O[C@H](CO)[C@@H](O)[C@H](N)[C@H]1O` [Amikacin], the “Antibiotic resistance (class)” value was “IS (IS indicates medium resistance and represents that the size of an inhibition zone is in a range of about 1 mm to about 5 mm)”; the “Antibiotic resistance, size of inhibition zone” value is “(1 mm)”.

For the compound `CC[C@H](C)[C@H](N)C1=N[C@H](C(=O)N[C@@H](CC(C)C)C(=O)N[C@H](CCC(=O)O)C(=O)N[C@H](C(=O)N[C@H]2CCCCNC(=O)[C@H](CC(N)=O)NC(=O)[C@@H](CC(=O)O)NC(=O)[C@H](Cc3cnc[nH]3)NC(=O)[C@@H](Cc3ccccc3)NC(=O)[C@H]([C@@H](C)CC)NC(=O)[C@@H](CCCN)NC2=O)[C@@H](C)CC)CS1` [Bacitracin] ({Ileψ(thiazoline)Cys}-L[dE]IK[dOrn]I[dF]H[dD]N; lactam 4-C), the “Antibiotic resistance (class)” value was “S (S indicates resistance and represents that the size of an inhibition zone is greater than about 5 mm)”; the “Antibiotic resistance, size of inhibition zone” value is “(7 mm)”.

The next assay relates to croton oil-induced mouse ear edema. The assay can be described thus: Croton oil-induced mouse ear edema test. It counts as in vivo, ICR mice. The conditions noted are these: 10 mg/kg BW oral; about 4 hours after 2.5% croton oil. As for the experimental part:
To confirm anti-inflammatory effect of the probiotic lactic acid bacteria (Lactobacillus plantarum KC3, KC3) on ear edema, an experiment was performed according to the croton oil-induced mouse ear edema method by applying the method described in the document (Dong Wook Kim, Kun Ho Son, Hyeun Wook Chang, KiHwan Bae and Sam Sik Kang, Arch Pharm Res., 2003, 3, pp 232-236).
To evaluate anti-inflammatory activity of the samples of the Example above, a croton oil-induced mouse ear edema test was carried out, and results thereof were obtained by measuring the ear thickness of the samples as shown in Table 8. […]
About 1 hour after administration, 2.5% croton oil (C0421 available from TCI Company, […]) dissolved in acetone was applied evenly to the inside and outside of the right ear of each mice to induce ear edema. […] Then, the degree of edema in the ears of the mice was measured according to variations in speed by measuring the thickness of both ears using a thickness gauge (Digimatic thickness gauge, 547-301, Mitutoyo, Japan). Here, based on the degree of and the inhibition rate (%) was calculated based on the degree of edema of the mice in the negative control group (0.5% sodium carboxymethyl cellulose (CMC), Sigma-Aldrich 419273), inhibition rates (%) were calculated, and results thereof are shown in Table 8 below.
Take `COc1ccc2c(c1)c(CC(=O)O)c(C)n2C(=O)c1ccc(Cl)cc1` [Indomethacin]: the “Inhibition rate of ear edema (% of control)” value is recorded as 25.6 ± 2.2 % of control.

Still in this assay, the particulars now being: 10 mg/kg BW oral; about 4 hours after 2.5% croton oil; edema control 0.806 ± 0.068.
Take `COc1ccc2c(c1)c(CC(=O)O)c(C)n2C(=O)c1ccc(Cl)cc1` [Indomethacin]: the “Thickness (ear)” value is 0.684 ± 0.054.
